Experimental data reported in ChEMBL document CHEMBL1201862, “PubChem BioAssay data set” (2004).
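Step 1: Grow cells in 96-well plates. Step 2: Expose to compound for 48 hours at 5 concentrations. Step 3: Interpolate endpoints linearly; if unreached, use highest concentration. At the GI50, growth is halved.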 Active and inactive are the calls of the source. Rule as the data show it: active = GI50 up to about 1.1 µM and inactive = higher.

What was measured:
Assay in all cases: DTP human tumour cell line panel, 48 h
[1] = tested on: HCT-116
[2] = tested on: IGROV-1
[3] = tested on: Malme-3M
[4] = tested on: HT-29
[5] = tested on: SK-MEL-28
[6] = tested on: A498
[7] = tested on: EKVX
[8] = tested on: PC-3
[9] = tested on: CAKI-1
[10] = tested on: SF-295
[11] = tested on: HCT-15
[12] = tested on: SK-MEL-5
[13] = tested on: OVCAR-4
[14] = tested on: SW-620
[15] = tested on: MDA-MB-231
[16] = tested on: NCI-H522
[17] = tested on: COLO 205
[18] = tested on: UACC-257
[19] = tested on: NCI/ADR-RES
[20] = tested on: MDA-MB-435

SMILES | GI50 [1] | GI50 [2] | GI50 [3] | GI50 [4] | GI50 [5] | GI50 [6] | GI50 [7] | GI50 [8] | GI50 [9] | GI50 [10] | GI50 [11] [µM] | GI50 [12] | GI50 [13] | GI50 [14] | GI50 [15] | GI50 [16] | GI50 [17] | GI50 [18] | GI50 [19] | GI50 [20]
N#CCOc1cccc(C2(N3CC=CCC3)CCCCC2)c1 | > 100 µM (inactive) | > 100 µM (inactive) | > 100 µM (inactive) | > 100 µM (inactive) | > 100 µM (inactive) | > 100 µM (inactive) | > 100 µM (inactive) | > 100 µM (inactive) | > 100 µM (inactive) | > 100 µM (inactive) | > 100 | > 100 µM (inactive) | > 100 µM (inactive) | 94 µM (inactive) | > 100 µM (inactive) | 57.8 µM (inactive) | > 100 µM (inactive) | 72.3 µM (inactive) | > 100 µM (inactive) | > 100 µM (inactive)
O=C(Nc1cccc(Cl)c1)Nn1cnnc1 | > 100 µM (inactive) | > 100 µM (inactive) | > 100 µM (inactive) | > 100 µM (inactive) | > 100 µM (inactive) | > 100 µM (inactive) | > 100 µM (inactive) | > 100 µM (inactive) | > 100 µM (inactive) | > 100 µM (inactive) | > 100 | > 100 µM (inactive) | > 100 µM (inactive) | > 100 µM (inactive) | > 100 µM (inactive) | > 100 µM (inactive) | > 100 µM (inactive) | > 100 µM (inactive) | > 100 µM (inactive) | > 100 µM (inactive)
N/C(=N\N=C\c1nc2ccccc2o1)c1cnccn1 | > 100 µM (inactive) | > 100 µM (inactive) | 1.71 µM (inactive) | > 100 µM (inactive) | > 100 µM (inactive) | > 100 µM (inactive) | > 100 µM (inactive) | > 100 µM (inactive) | > 100 µM (inactive) | 87.9 µM (inactive) | > 100 | > 100 µM (inactive) | > 100 µM (inactive) | > 100 µM (inactive) | 51.2 µM (inactive) | > 100 µM (inactive) | > 100 µM (inactive) | > 100 µM (inactive) | > 100 µM (inactive) | > 100 µM (inactive)
Cc1c(-c2nc(N)nc(C3CC3)c2C)nc(N)nc1C1CC1 | > 100 µM (inactive) | > 100 µM (inactive) | > 100 µM (inactive) | > 100 µM (inactive) | > 100 µM (inactive) | > 100 µM (inactive) | > 100 µM (inactive) | > 100 µM (inactive) | > 100 µM (inactive) | > 100 µM (inactive) | > 100 | > 100 µM (inactive) | > 100 µM (inactive) | > 100 µM (inactive) | > 100 µM (inactive) | > 100 µM (inactive) | > 100 µM (inactive) | > 100 µM (inactive) | > 100 µM (inactive) | > 100 µM (inactive)
COC(=O)C1C(=O)C=CN([C@H](C)c2ccccc2)[C@@H]1Cc1ccc(OC)c(OCc2ccccc2)c1I (stereo not given in full) | 11.7 µM (inactive) | 10.2 µM (inactive) | 24.4 µM (inactive) | 10 µM (inactive) | 40.6 µM (inactive) | 14.5 µM (inactive) | 23.6 µM (inactive) | 13.8 µM (inactive) | 22 µM (inactive) | 16.9 µM (inactive) | 7.1 | 13.5 µM (inactive) | 8.83 µM (inactive) | 27.7 µM (inactive) | 18.3 µM (inactive) | 13.6 µM (inactive) | 14.9 µM (inactive) | 18.2 µM (inactive) | 11.1 µM (inactive) | 17 µM (inactive)
